As usually defined, the Kd is a measure of binding affinity in units of concentration. Usually IC50 stands for the concentration that gives 50% inhibition. A lower IC50 goes with greater potency.

The text below walks through data of patent US20250017889A1, “INHIBITORS OF P1B-TYPE ATPASES” (THE CURATORS OF THE UNIVERSITY OF MISSOURI, priority 2021, published 2025).

The target in data set [1] is T1, ATP7A (Homo sapiens, UniProt Q04656).
T1 construct: expressed in transfected cells; host or cells: HEK293 (detergent-free lysate)
T1 sequence (Q04656 1-1500): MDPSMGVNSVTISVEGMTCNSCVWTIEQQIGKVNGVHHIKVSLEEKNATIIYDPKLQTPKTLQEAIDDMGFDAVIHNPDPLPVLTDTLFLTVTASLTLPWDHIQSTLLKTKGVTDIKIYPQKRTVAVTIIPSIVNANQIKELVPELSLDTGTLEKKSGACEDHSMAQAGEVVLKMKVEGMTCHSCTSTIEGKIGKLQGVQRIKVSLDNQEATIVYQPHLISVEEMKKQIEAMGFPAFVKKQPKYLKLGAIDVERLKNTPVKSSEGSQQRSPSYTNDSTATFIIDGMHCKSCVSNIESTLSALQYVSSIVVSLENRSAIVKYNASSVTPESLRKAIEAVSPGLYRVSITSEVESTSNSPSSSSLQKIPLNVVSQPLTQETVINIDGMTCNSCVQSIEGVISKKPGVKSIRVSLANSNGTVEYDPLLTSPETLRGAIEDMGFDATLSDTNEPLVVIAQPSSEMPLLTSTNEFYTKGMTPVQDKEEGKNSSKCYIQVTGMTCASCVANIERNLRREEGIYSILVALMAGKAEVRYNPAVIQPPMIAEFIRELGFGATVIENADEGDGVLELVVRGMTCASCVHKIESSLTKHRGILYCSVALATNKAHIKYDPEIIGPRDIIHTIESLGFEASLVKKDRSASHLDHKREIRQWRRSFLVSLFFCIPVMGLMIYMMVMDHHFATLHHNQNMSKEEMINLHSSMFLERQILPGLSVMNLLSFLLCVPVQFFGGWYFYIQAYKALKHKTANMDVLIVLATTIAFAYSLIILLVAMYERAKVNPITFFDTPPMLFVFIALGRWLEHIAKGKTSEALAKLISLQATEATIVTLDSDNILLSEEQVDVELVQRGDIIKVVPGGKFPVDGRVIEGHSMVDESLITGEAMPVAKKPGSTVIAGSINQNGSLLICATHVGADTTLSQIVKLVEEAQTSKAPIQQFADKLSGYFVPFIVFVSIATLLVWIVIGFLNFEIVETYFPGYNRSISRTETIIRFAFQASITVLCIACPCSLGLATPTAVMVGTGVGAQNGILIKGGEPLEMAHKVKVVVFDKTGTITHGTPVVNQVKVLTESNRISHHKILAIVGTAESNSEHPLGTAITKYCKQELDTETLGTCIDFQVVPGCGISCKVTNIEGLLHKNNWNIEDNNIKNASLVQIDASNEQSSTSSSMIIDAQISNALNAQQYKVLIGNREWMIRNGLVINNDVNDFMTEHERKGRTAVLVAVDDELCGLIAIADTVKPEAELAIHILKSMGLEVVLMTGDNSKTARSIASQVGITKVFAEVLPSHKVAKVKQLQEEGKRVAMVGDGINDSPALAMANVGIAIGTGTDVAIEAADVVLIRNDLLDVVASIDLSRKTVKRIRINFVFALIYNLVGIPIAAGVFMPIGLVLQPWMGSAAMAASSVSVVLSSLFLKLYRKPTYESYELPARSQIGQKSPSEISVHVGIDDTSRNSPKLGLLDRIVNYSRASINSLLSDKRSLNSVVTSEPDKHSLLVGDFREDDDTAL
Kind of data set: Microscale thermophoresis (MST) binding to GFP-ATP7A in HEK293 cell lysates. The settings on record: for Kd: MST analysis, read-out: ATP7A Binding Affinity KD. In general terms: MST reads how a fluorescent partner responds to local heating, with and without ligand.

The test system of data set [2] is tyrosinase activity in B16 melanoma cells. In words: Tyrosinase activity in wild type B16 melanoma cells (L-DOPA to DOPAchrome), proxy for ATP7A inhibition. The format is cell-based. As to conditions: for IC50: Mus musculus, B16 cells. The source says:
Tyrosinase is a cuproenzyme involved in melanogenesis that receives copper via ATP7A in the secretory pathway. […] Thus, reductions in tyrosinase activity in wild type B16 cells can be used as a proxy for inhibition of ATP7A. […]

A short description of data set [3]: Cytotoxicity in B16 cells by MTT and crystal violet assays. The format is cell-based. The settings on record: mouse, B16 melanoma cells; B16 cells, MTT and crystal violet assays; read-out: half-maximal cytotoxic concentration (CC50). An excerpt: This is consistent with lower affinity of MKV1 for ATP7A (FIG. 6E).
The test system of data set [4] is GFP alone. Kind of data set: Microscale thermophoresis (MST), GFP alone as negative control. The format is binding. The source says:
(§1) Coordinating residues D935 and E798 are predicted to bind copper during transport.

The test system of data set [5] is LOX activity. In words: LOX activity secreted into conditioned media of cancer cells. It is filed as cell-based. As to conditions: 4T1 breast cancer cells, compared with MKV3.
Data set [6] has as its target T2, ATP7B (Homo sapiens, UniProt P35670).
T2 construct: expressed in transfected cells; host or cells: HEK293 (detergent-free lysate)
T2 sequence (P35670 1-1465): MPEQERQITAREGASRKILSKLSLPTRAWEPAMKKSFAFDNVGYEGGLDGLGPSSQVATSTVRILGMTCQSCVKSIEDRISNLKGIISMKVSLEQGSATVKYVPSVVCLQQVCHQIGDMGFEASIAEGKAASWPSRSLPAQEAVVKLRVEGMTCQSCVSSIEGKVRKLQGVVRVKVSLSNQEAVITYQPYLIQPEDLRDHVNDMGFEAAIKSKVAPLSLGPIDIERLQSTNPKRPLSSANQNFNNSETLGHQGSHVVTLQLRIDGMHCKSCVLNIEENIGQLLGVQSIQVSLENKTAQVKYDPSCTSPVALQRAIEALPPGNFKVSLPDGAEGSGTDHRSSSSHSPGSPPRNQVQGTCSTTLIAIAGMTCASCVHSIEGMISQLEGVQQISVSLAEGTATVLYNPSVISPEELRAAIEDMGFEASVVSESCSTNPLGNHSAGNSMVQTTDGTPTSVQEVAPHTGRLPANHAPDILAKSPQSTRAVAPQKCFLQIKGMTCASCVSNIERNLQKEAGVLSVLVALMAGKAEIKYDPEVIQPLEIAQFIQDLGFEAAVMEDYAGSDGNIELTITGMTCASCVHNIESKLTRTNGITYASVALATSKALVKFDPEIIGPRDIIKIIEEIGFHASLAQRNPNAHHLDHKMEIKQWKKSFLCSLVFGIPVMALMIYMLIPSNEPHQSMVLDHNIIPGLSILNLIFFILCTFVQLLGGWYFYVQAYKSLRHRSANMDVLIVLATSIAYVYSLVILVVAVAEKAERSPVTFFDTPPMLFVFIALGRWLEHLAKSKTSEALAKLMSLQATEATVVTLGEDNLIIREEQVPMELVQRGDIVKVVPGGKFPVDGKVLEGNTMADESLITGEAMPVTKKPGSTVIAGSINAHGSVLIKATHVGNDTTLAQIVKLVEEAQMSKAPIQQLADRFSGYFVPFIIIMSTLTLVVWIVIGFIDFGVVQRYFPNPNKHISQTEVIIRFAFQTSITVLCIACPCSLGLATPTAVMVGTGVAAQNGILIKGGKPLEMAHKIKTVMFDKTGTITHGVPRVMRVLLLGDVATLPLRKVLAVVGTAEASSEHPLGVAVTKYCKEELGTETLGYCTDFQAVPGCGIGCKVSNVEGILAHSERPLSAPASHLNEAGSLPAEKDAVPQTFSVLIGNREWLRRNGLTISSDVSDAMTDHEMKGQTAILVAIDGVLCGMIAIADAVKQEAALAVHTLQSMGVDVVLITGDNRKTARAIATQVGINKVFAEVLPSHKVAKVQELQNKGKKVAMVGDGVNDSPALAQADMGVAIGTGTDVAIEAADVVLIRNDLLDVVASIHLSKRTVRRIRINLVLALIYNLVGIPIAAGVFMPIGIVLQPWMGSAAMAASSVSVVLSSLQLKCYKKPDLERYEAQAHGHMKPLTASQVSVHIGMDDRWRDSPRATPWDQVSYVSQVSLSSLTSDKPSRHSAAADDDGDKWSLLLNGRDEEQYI
In words: Microscale thermophoresis (MST) binding to GFP-ATP7B in HEK293 cell lysates. The settings on record: MST.
Description: as §1

For data set [7], the system named is ΔcopA/ΔcopB strain of S. aureus. In words: Growth of copper-sensitive ΔcopA/ΔcopB mutant strain of S. aureus. The format is cell-based, Staphylococcus aureus. The settings on record: copper alone 50 μM. The method, then: Methicillin-resistant Staphylococcus aureus (MRSA) is a human pathogen that expresses two Cu-transporting P1B-type ATPases, CopA and CopB, which are known to enhance the virulence of this bacterium. 19A illustrates CopA and CopB copper exporters at the plasma membrane of S. aureus. […] The growth of the ΔcopA/ΔcopB strain was inhibited by approximately 50% when copper alone (50 μM) was added to the culture medium.
Wild type MRSA expresses two copper-exporting P1B-type ATPases, CopA and CopB that are required for copper tolerance (FIG. 19A). […] The same experiment was performed using MRSA in which both CopA and CopB genes were deleted (ΔcopA/ΔcopB). Consistent with the known role of CopA and CopB in copper tolerance, the growth of the ΔcopA/ΔcopB strain was inhibited by approximately 50% when copper alone (50 μM) was added to the culture medium (FIG. 19C).

For the compound `N#CC(C(=O)Nc1ccccc1)C(=S)Nc1ccccc1Cl` (stereo not drawn) [MKV1E], the Kd in data set [1] was determined as 1.06 ± 0.054 µM. In addition, it took 11.7 ± 0.001 µM to reach half-maximal inhibition in data set [2] (IC50).

On to `O=C(CC(=S)Nc1ccccc1)Nc1ccccc1` [MKV1], for which the CC50 in data set [3] was approximately 270 µM. In addition, the “binding to GFP alone” value in data set [4] was “not to GFP alone”. Moreover, the “fold difference in affinity for ATP7A between MKV3 (higher) and MKV1 (lower)” value in data set [1] (MST) is reported as “approximately 10 fold”. The dissociation constant (Kd) in data set [1] came out at 1.83 ± 0.151 µM. In addition, in data set [2] (50 μM, 24 h, wild type B16 melanoma cells), the “in situ tyrosinase activity” value is reported as “loss of tyrosinase activity”. In data set [2], this compound gave an IC50 of 29.98 ± 0.029 µM. Also, the LOX activity result in data set [5] was “inhibited LOX activity but only at higher concentrations than for MKV3”. Moreover, the “fold difference in affinity for ATP7B between MKV3 (higher) and MKV1 (lower)” value in data set [6] is listed as “approximately 10 fold”.

Regarding `N#CC(C(=O)Nc1cccc(C(F)(F)F)c1)C(=S)Nc1ccccc1` (stereo not drawn) [MKV1F], the Kd in data set [1] is 1 ± 0.059 µM. Besides, the IC50 in data set [2] was found to be 8.719 ± 0.014 µM.

For the compound `N#CC(C(=O)Nc1ccccc1)C(=S)Nc1ccccc1` (stereo not drawn) [MKV1B], the Kd in data set [1] worked out at 0.354 ± 0.021 µM. The compound further gave an IC50 in data set [2] of 21.87 ± 0.129 µM.

Consider `O=C(CC(=S)Nc1ccccc1Cl)Nc1ccccc1` [MKV1A], for which, in data set [1], the equilibrium dissociation constant (Kd) is 0.363 ± 0.024 µM. Moreover, the concentration for half-maximal inhibition (IC50) in data set [2] came out at 21.559 ± 0.005 µM.

As for copper, the “inhibition of growth of the ΔcopA/ΔcopB strain” value in data set [7] is recorded as “approximately 50%”.

Take `O=C(CC(=S)Nc1ccccc1)Nc1cccc(C(F)(F)F)c1` [MKV1C]: in data set [1], the Kd worked out at 0.43 ± 0.016 µM. Moreover, the half-maximal inhibitory concentration (IC50) in data set [2] is 16.18 ± 0.023 µM.

Turning to `O=C(CC(=S)Nc1ccccc1Cl)Nc1cccc(C(F)(F)F)c1` [MKV1D], in data set [1], the dissociation constant (Kd) was found to be 0.708 ± 0.042 µM. Moreover, in data set [2], half-maximal inhibition (IC50) was put at 12.222 ± 0.005 µM.
